According to US11753446B2, “Beta-hairpin peptidomimetics” (POLYPHOR AG, priority 2014, dated 2023):
Where two headings read alike, the source gives them in different places. Where a SMILES comes first, the peptide text is derived from it. Bridges are numbered along the chain shown (N, C = ends). [ ]: non-standard residue; d: D form. Tle = CC(C)(C)[C@H](N)C(=O)O; dDab = NCC[C@@H](N)C(=O)O; NMeA = CN[C@@H](C)C(=O)O; Dab = NCC[C@H](N)C(=O)O; Dap = NC[C@H](N)C(=O)O

Legend:
[1] = system: human red blood cells (hRBC); assay: Hemolysis: hemolytic activity at 100 μg/mL, 1 h at 37° C.
In short: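 Peptides at 100 μg/mL incubated with washed 20% (v/v) human erythrocytes (~0.9×10^9 cells/mL) for 1 h at 37 °C with shaking. Released hemoglobin read at OD 540 nm in supernatant; 0% and 100% lysis from PBS/0.001% acetic acid and 2.5% Triton X-100.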

[2] = system: Klebsiella pneumoniae ATCC 13883; type: cell-based
In short: (§1)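 Peptide activity was tested by NCCLS broth microdilution with slight modifications. Bacteria were diluted in cation-adjusted Mueller-Hinton II broth to approximately 10^6 CFU/mL against a 0.5 McFarland standard. They were then exposed to two-fold serial peptide dilutions in broth containing 0.002% final polysorbate 80.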

[3] = system: Acinetobacter baumannii DSM 30008; type: cell-based
In short: as §1

[4] = system: Escherichia coli ATCC 25922; type: cell-based
In short: as §1

[5] = Mueller-Hinton II broth, 18-20 hours at 35° C.

Compound	Hemolysis at 100 μg/mL ([1]; red cells of human, 1 h, 100)	Klebsiella pneumoniae ATCC 13883 MIC ([2]; ATCC 13883)	Acinetobacter baumannii DSM 30008 MIC ([3]; DSM 30008)	Escherichia coli ATCC 25922 MIC ([4]; ATCC 25922)	Hemolysis at 100 μg/mL ([1]; 100 μg/mL, 20% hRBC, 1 h at 37° C.)	Klebsiella pneumoniae ATCC 13883 MIC [2, 5]	Acinetobacter baumannii DSM 30008 MIC [3, 5]	Escherichia coli ATCC 25922 MIC [4, 5]
CCC[C@@H]1NC(=O)[C@H](CCCNC(=N)N)NC(=O)[C@@H](CCN)NC(=O)[C@H](C(C)C)NC(=O)[C@@H]2CSSC[C@H](NC1=O)C(=O)N[C@@H](Cc1ccc(O)cc1)C(=O)N[C@@H](CC(N)=O)C(=O)N[C@@H](CCCN)C(=O)N[C@H](CCN)C(=O)N[C@@H](CCN)C(=O)N[C@@H](Cc1c[nH]c3ccccc13)C(=O)N[C@@H](CO)C(=O)N[C@@H](Cc1ccc(O)cc1)C(=O)N2 [Example 60, cyclo(-Nva-Cys-Tyr-Asn-Orn-^DDab-Dab-Trp-Ser-Tyr-Cys-Val-^DDab-Arg-)] (HELM PEPTIDE1{C.V.[NCC[C@@H](N[*:1])C(=O)[*:2]].R.[Nva].C.Y.N.[Orn].[NCC[C@@H](N[*:1])C(=O)[*:2]].[Dab].W.S.Y}$PEPTIDE1,PEPTIDE1,1:R3-6:R3|PEPTIDE1,PEPTIDE1,1:R1-14:R2$$$V2.0)	1%	1 µg/mL	0.75 µg/mL	1 µg/mL				
CC(C)C[C@@H]1NC(=O)[C@H](CCCNC(=N)N)NC(=O)[C@@H](CCN)NC(=O)[C@H](C(C)C)NC(=O)[C@@H]2CSSC[C@H](NC1=O)C(=O)N[C@@H](C(C)C)C(=O)N[C@@H]([C@@H](C)O)C(=O)N[C@@H](CCCN)C(=O)N[C@H](CCN)C(=O)N[C@@H](CCN)C(=O)N[C@@H](Cc1c[nH]c3ccccc13)C(=O)N[C@@H]([C@@H](C)O)C(=O)N[C@@H](Cc1ccc(O)cc1)C(=O)N2 [Example 25, cyclo(-Leu-Cys-Val-Thr-Orn-^DDab-Dab-Trp-Thr-Tyr-Cys-Val-^DDab-Arg-)] (HELM PEPTIDE1{C.V.T.[Orn].[NCC[C@@H](N[*:1])C(=O)[*:2]].[Dab].W.T.Y.C.V.[NCC[C@@H](N[*:1])C(=O)[*:2]].R.L}$PEPTIDE1,PEPTIDE1,1:R3-10:R3|PEPTIDE1,PEPTIDE1,1:R1-14:R2$$$V2.0)	3%	1 µg/mL	0.25 µg/mL	1 µg/mL				
CC(C)C[C@@H]1NC(=O)[C@@H]2CCCN2C(=O)[C@@H](C)NC(=O)[C@H](CO)NC(=O)[C@@H]2CC(=O)NCC[C@H](NC1=O)C(=O)N[C@@H](Cc1ccc(O)cc1)C(=O)N[C@@H](CCN)C(=O)N[C@@H](CCN)C(=O)N[C@@H](CCN)C(=O)N[C@@H](CCN)C(=O)N[C@@H](Cc1c[nH]c3ccccc13)C(=O)N[C@@H](CCN)C(=O)N[C@@H](C(C)(C)C)C(=O)N2 [Example 26, cyclo(-Leu-Dab-Tyr-Dab-Dab-Dab-Dab-Trp-Dab-tBuGly-Asp-Ser-^DAla-Pro-)] (HELM PEPTIDE1{D.S.[dA].P.L.[Dab].Y.[Dab].[Dab].[Dab].[Dab].W.[Dab].[CC(C)(C)[C@H](N[*:1])C(=O)[*:2]]}$PEPTIDE1,PEPTIDE1,1:R3-6:R3|PEPTIDE1,PEPTIDE1,1:R1-14:R2$$$V2.0)	1%	1 µg/mL	2 µg/mL	2 µg/mL				
CC(C)C[C@@H]1NC(=O)[C@H](CCCNC(=N)N)NC(=O)[C@@H](CCN)NC(=O)[C@H](C(C)C)NC(=O)[C@H](CO)NC(=O)[C@H](C(C)C)NC(=O)[C@@H]2CSSC[C@H](NC(=O)[C@H](Cc3ccc(O)cc3)NC(=O)[C@H](CO)NC1=O)C(=O)N[C@@H](CCCN)C(=O)N[C@H](CCN)C(=O)N[C@@H](CCN)C(=O)N[C@@H](Cc1ccccc1)C(=O)N2 [Example 39, cyclo(-Leu-Ser-Tyr-Cys-Orn-^DDab-Dab-Phe-Cys-Val-Ser-Val-^DDab-Arg-)] (HELM PEPTIDE1{C.[Orn].[NCC[C@@H](N[*:1])C(=O)[*:2]].[Dab].F.C.V.S.V.[NCC[C@@H](N[*:1])C(=O)[*:2]].R.L.S.Y}$PEPTIDE1,PEPTIDE1,1:R3-6:R3|PEPTIDE1,PEPTIDE1,1:R1-14:R2$$$V2.0)	4.5%	0.25 µg/mL	0.5 µg/mL	0.5 µg/mL				
CC(C)[C@@H]1NC(=O)[C@@H]2CCCN2C(=O)[C@@H]([C@H](C)O)NC(=O)[C@H]([C@@H](C)O)NC(=O)[C@@H]2CC(=O)NCC[C@H](NC1=O)C(=O)N[C@@H](Cc1ccc(O)cc1)C(=O)N[C@@H](CCN)C(=O)N[C@@H](CN)C(=O)N[C@H](CCN)C(=O)N[C@@H](CCN)C(=O)N[C@@H](Cc1c[nH]c3ccccc13)C(=O)N[C@@H](CCN)C(=O)N[C@@H](C(C)(C)C)C(=O)N2 [Example 29, cyclo(-Val-Dab-Tyr-Dab-Dap-^DDab-Dab-Trp-Dab-tBuGly-Asp-Thr-^DThr-Pro-)] (cyclo(V[Dab]Y[Dab][Dap][dDab][Dab]W[Dab][Tle]DT[dT]P); lactam 2-11)	2%	0.5 µg/mL	1 µg/mL	0.5 µg/mL				
CC(C)[C@@H]1NC(=O)[C@@H]2CCCN2C(=O)[C@H](C)N(C)C(=O)[C@H](CO)NC(=O)[C@@H]2CSSC[C@H](NC1=O)C(=O)N[C@@H](Cc1ccc(O)cc1)C(=O)N[C@@H](CCN)C(=O)N[C@@H](CN)C(=O)N[C@H](CCN)C(=O)N[C@@H](CCN)C(=O)N[C@@H](Cc1c[nH]c3ccccc13)C(=O)N[C@@H](CCN)C(=O)N[C@@H](C(C)(C)C)C(=O)N2 [Example 9, cyclo(-Val-Cys-Tyr-Dab-Dap-^DDab-Dab-Trp-Dab-tBuGly-Cys-Ser-NMeAla-Pro-] (cyclo(CS[NMeA]PVCY[Dab][Dap][dDab][Dab]W[Dab][Tle]); disulfide 1-6)	2%	0.5 µg/mL	1 µg/mL	0.5 µg/mL				
CC(C)C[C@@H]1NC(=O)[C@H](CCCCN)NC(=O)[C@@H](CCN)NC(=O)[C@H](C(C)C)NC(=O)[C@@H]2CSSC[C@H](NC1=O)C(=O)N[C@@H](Cc1ccc(O)cc1)C(=O)N[C@@H](CC(N)=O)C(=O)N[C@@H](CCCN)C(=O)N[C@H](CCN)C(=O)N[C@@H](CCN)C(=O)N[C@@H](Cc1c[nH]c3ccccc13)C(=O)N[C@@H](CO)C(=O)N[C@@H](Cc1ccc(O)cc1)C(=O)N2 [Example 67, cyclo(-Leu-Cys-Tyr-Asn-Orn-^DDab-Dab-Trp-Ser-Tyr-Cys-Val-^DDab-Lys-)] (HELM PEPTIDE1{C.V.[NCC[C@@H](N[*:1])C(=O)[*:2]].K.L.C.Y.N.[Orn].[NCC[C@@H](N[*:1])C(=O)[*:2]].[Dab].W.S.Y}$PEPTIDE1,PEPTIDE1,1:R3-6:R3|PEPTIDE1,PEPTIDE1,1:R1-14:R2$$$V2.0)					1%	1 µg/mL	1.5 µg/mL	1 µg/mL
CC(C)C[C@@H]1NC(=O)[C@H](CCN)NC(=O)[C@@H](CCN)NC(=O)[C@H](CO)NC(=O)[C@@H]2CSSC[C@H](NC1=O)C(=O)N[C@@H](Cc1ccc(O)cc1)C(=O)N[C@@H](CC(N)=O)C(=O)N[C@@H](CCCN)C(=O)N[C@H](CCN)C(=O)N[C@@H](CCN)C(=O)N[C@@H](Cc1c[nH]c3ccccc13)C(=O)N[C@@H](CO)C(=O)N[C@@H](Cc1ccc(O)cc1)C(=O)N2 [Example 8, cyclo(-Leu-Cys-Tyr-Asn-Orn-^DDab-Dab-Trp-Ser-Tyr-Cys-Ser-^DDab-Dab-)] (HELM PEPTIDE1{C.S.[NCC[C@@H](N[*:1])C(=O)[*:2]].[Dab].L.C.Y.N.[Orn].[NCC[C@@H](N[*:1])C(=O)[*:2]].[Dab].W.S.Y}$PEPTIDE1,PEPTIDE1,1:R3-6:R3|PEPTIDE1,PEPTIDE1,1:R1-14:R2$$$V2.0)	1%	0.5 µg/mL	1.5 µg/mL	1 µg/mL				
CC(C)C[C@@H]1NC(=O)[C@H](CCCNC(=N)N)NC(=O)[C@@H](CCN)NC(=O)[C@H](C(C)C)NC(=O)[C@@H]2CSSC[C@H](NC1=O)C(=O)N[C@@H](Cc1ccc(O)cc1)C(=O)N[C@@H](C(C)C)C(=O)N[C@@H](CCCN)C(=O)N[C@H](CCN)C(=O)N[C@@H](CCN)C(=O)N[C@@H](Cc1c[nH]c3ccccc13)C(=O)N[C@@H](Cc1ccc(O)cc1)C(=O)N[C@@H](Cc1ccc(O)cc1)C(=O)N2 [Example 21, cyclo(-Leu-Cys-Tyr-Val-Orn-^DDab-Dab-Trp-Tyr-Tyr-Cys-Val-^DDab-Arg-)] (HELM PEPTIDE1{C.V.[NCC[C@@H](N[*:1])C(=O)[*:2]].R.L.C.Y.V.[Orn].[NCC[C@@H](N[*:1])C(=O)[*:2]].[Dab].W.Y.Y}$PEPTIDE1,PEPTIDE1,1:R3-6:R3|PEPTIDE1,PEPTIDE1,1:R1-14:R2$$$V2.0)	6%	1 µg/mL	0.5 µg/mL	1 µg/mL				
